Experimental data reported in patent publication US20250230193A1, “CYCLIC COMPOUND HAVING SELECTIVE KRAS INHIBITORY EFFECT ON HRAS AND NRAS” (CHUGAI SEIYAKU KABUSHIKI KAISHA, priority 2022, published 2025).
Where a SMILES comes first, the peptide text is derived from it. Bridges are numbered along the chain shown (N, C = ends). [ ]: non-standard residue; d: D form. The star is where a group is joined. hPhe(3-Cl-4-CF3) = N[C@@H](CCc1ccc(C(F)(F)F)c(Cl)c1)C(=O)O; NPrPhe(4-CF3) = CCCN[C@@H](Cc1ccc(C(F)(F)F)cc1)C(=O)O; NEtPhe(4-Me) = CCN[C@@H](Cc1ccc(C)cc1)C(=O)O; NMeGly(cPent) = CN[C@H](C(=O)O)C1CCCC1; Hyp = O=C(O)[C@@H]1C[C@@H](O)CN1; NMeD = CN[C@@H](CC(=O)O)C(=O)O; NMeL = CN[C@@H](CC(C)C)C(=O)O; Morpholide = C1CN(*)CCO1; NMeA = CN[C@@H](C)C(=O)O; Ac5c = NC1(C(=O)O)CCCC1; Aze = O=C(O)[C@@H]1CCN1; Ac4c = NC1(C(=O)O)CCC1; Sar = CNCC(=O)O

Legend:
[1] = biological target: GDP-bound HRAS wild-type protein (Homo sapiens, UniProt P01112); test: Binding to HRAS by surface plasmon resonance (SPR), Single Cycle Kinetics; settings: for HRAS/KRAS (ratio of KD value for HRAS to KD value for KRAS) / HRAS/KRAS (ratio of KD value with respect to HRAS to KD value with respect to KRAS): GDP-bound HRAS wild-type vs GDP-bound KRAS wild-type; for HRAS/KRAS (ratio of KD value for HRAS to KD value for KRAS) / HRAS/KRAS (ratio of KD for GDP-bound HRAS wild-type to KD for KRAS) / HRAS/KRAS (ratio of KD value with respect to HRAS to KD value with respect to KRAS): SPR
[2] = biological target: GDP-bound NRAS wild-type protein (Homo sapiens, UniProt P01111); test: Binding to NRAS by surface plasmon resonance (SPR), Single Cycle Kinetics; settings: for NRAS/KRAS (ratio of KD value for NRAS to KD value for KRAS) / NRAS/KRAS (ratio of KD value with respect to NRAS to KD value with respect to KRAS): GDP-bound NRAS wild-type vs GDP-bound KRAS wild-type; for NRAS/KRAS (ratio of KD value for NRAS to KD value for KRAS) / NRAS/KRAS (ratio of KD for GDP-bound NRAS wild-type to KD for KRAS) / NRAS/KRAS (ratio of KD value with respect to NRAS to KD value with respect to KRAS): SPR
Chain of GDP-bound NRAS wild-type protein (P01111 whole entry): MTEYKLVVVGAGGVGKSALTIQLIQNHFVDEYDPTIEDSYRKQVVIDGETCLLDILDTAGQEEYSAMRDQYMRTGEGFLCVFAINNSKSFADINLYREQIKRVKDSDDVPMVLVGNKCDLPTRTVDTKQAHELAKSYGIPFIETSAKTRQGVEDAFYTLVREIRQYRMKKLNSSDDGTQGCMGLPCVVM

Chain of GDP-bound HRAS wild-type protein (P01112 whole entry): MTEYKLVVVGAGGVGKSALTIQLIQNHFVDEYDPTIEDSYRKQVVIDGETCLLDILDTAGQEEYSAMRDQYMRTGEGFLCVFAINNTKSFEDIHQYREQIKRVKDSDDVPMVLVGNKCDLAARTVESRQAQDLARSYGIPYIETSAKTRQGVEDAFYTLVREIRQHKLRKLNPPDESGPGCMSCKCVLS

CCO[C@@H]1C[C@H]2C(=O)NC3(CC(C)(C)C3)C(=O)N(C)[C@@H](C3CCCC3)C(=O)N(C)[C@H](C(=O)N(C)C)CC(=O)N(C)[C@@H](CC3CCC3)C(=O)N[C@@H]([C@@H](C)CC)C(=O)N(C)CC(=O)N(C)[C@H]3C/C=C\CCN(C3=O)[C@@H](Cc3ccc(C(F)(F)F)cc3)C(=O)N(C)CC(=O)N[C@@H](CCc3cc(F)c(C(F)(F)F)c(F)c3)C(=O)N2C1 [PP1651]
HRAS/KRAS (ratio of KD value for HRAS to KD value for KRAS) ([1]; KD ratio): B (a compound having 3 or more and less than 10 is denoted as B) | NRAS/KRAS (ratio of KD value for NRAS to KD value for KRAS) ([2]; KD ratio): A (a compound having 10 or more and less than 20 is denoted as A)

CCC[C@H]1C(=O)N[C@@H]([C@@H](C)CC)C(=O)N(C2CC2)CC(=O)N(C)[C@H]2C/C=C\CCN(C2=O)[C@@H](Cc2ccc(C(F)F)cc2)C(=O)N(C)CC(=O)N[C@@H](CCc2cc(F)c(C(F)(F)F)c(F)c2)C(=O)N2C[C@H](OC(C)C)C[C@H]2C(=O)NC2(CC(C)(C)C2)C(=O)N(C)[C@@H](C(CC)CC)C(=O)N(C)[C@H](C(=O)N(C)C)CC(=O)N1C [PP2529]
HRAS/KRAS (ratio of KD value with respect to GDP-bound HRAS wild-type protein to KD value with respect to KRAS) ([1]; KD ratio HRAS/KRAS, class symbols): A (a compound having 10 or more and less than 20 is denoted as A) | NRAS/KRAS (ratio of KD value with respect to GDP-bound NRAS wild-type protein to KD value with respect to KRAS) ([2]; KD ratio NRAS/KRAS, class symbols): AA (a compound having 20 or more is denoted as AA)

CC[C@H](C)[C@@H]1NC(=O)[C@H](CC(C)C)N(C)C(=O)C[C@@H](C(=O)N(C)CC)N(C)C(=O)[C@H](C2CCCC2)N(C)C(=O)C2(CCC2)NC(=O)[C@@H]2C[C@@H](C)CN2C(=O)[C@H](CCc2ccc(C(F)(F)F)c(OC)c2)NC(=O)CN(C)C(=O)[C@H](Cc2ccc(C)cc2)N2CC/C=C\C[C@@H](C2=O)N(C)C(=O)CN(C)C1=O [PP1907]
HRAS/KRAS (ratio of KD value for HRAS to KD value for KRAS) ([1]; KD ratio): A (a compound having 10 or more and less than 20 is denoted as A) | NRAS/KRAS (ratio of KD value for NRAS to KD value for KRAS) ([2]; KD ratio): AA (a compound having 20 or more is denoted as AA)

CCO[C@@H]1C[C@H]2C(=O)NC3(CC(F)(F)C3)C(=O)N(C)[C@@H](C3CCCC3)C(=O)N(C)[C@H](C(=O)N(C)C)CC(=O)N(C)[C@@H](CC(C)C)C(=O)N[C@@H]([C@@H](C)CC)C(=O)N(C)CC(=O)N(C)[C@H]3C/C=C\CCN(C3=O)[C@@H](Cc3ccc(C(F)(F)F)cc3)C(=O)N(C)CC(=O)N[C@@H](CCc3cc(F)c(C(F)(F)F)c(F)c3)C(=O)N2C1 [PP1741]
HRAS/KRAS (ratio of KD value for HRAS to KD value for KRAS) ([1]; KD ratio): B (a compound having 3 or more and less than 10 is denoted as B) | NRAS/KRAS (ratio of KD value for NRAS to KD value for KRAS) ([2]; KD ratio): A (a compound having 10 or more and less than 20 is denoted as A)

CCO[C@@H]1C[C@H]2C(=O)NC3(CCCC3)C(=O)N(C)[C@@H](C3CCCC3)C(=O)N(C)[C@H](C(=O)N3CCOCC3)CC(=O)N(C)[C@@H](CC(C)C)C(=O)N[C@@H]([C@@H](C)CC)C(=O)N(C)[C@@H](C)C(=O)N3CC[C@H]3C(=O)N(CC)[C@@H](Cc3ccc(C)cc3)C(=O)N(C)CC(=O)N[C@@H](CCc3ccc(C(F)(F)F)c(Cl)c3)C(=O)N2C1 [PP0014] ([NMeL]I[NMeA][Aze][NEtPhe(4-Me)][Sar][hPhe(3-Cl-4-CF3)][Hyp](Et)[Ac5c][NMeGly(cPent)][NMeD]-Morpholide; lactam N-11)
HRAS/KRAS (ratio of KD for GDP-bound HRAS wild-type to KD for KRAS) ([1]; KD ratio HRAS/KRAS): C (A compound having a KD ratio of 0.1 or more and less than 3 is denoted as C) | NRAS/KRAS (ratio of KD for GDP-bound NRAS wild-type to KD for KRAS) ([2]; KD ratio NRAS/KRAS): C (A compound having a KD ratio of 0.1 or more and less than 3 is denoted as C)

CCOC[C@H]1C(=O)N[C@@H]([C@@H](C)CC)C(=O)N(C)CC(=O)N(C)[C@H]2C/C=C\CCN(C2=O)[C@@H](Cc2ccc(C)cc2)C(=O)N(C)CC(=O)N[C@@H](CCc2ccc(C(F)(F)F)c(OC)c2)C(=O)N2C[C@@H](C)C[C@H]2C(=O)NC2(CC(C)(C)C2)C(=O)N(C)[C@@H](C2CCCC2)C(=O)N(C)[C@H](C(=O)N(C)C)CC(=O)N1C [PP2505]
HRAS/KRAS (ratio of KD value with respect to HRAS to KD value with respect to KRAS) [1]: B (a compound having 3 or more and less than 10 is denoted as B) | NRAS/KRAS (ratio of KD value with respect to NRAS to KD value with respect to KRAS) [2]: A (a compound having 10 or more and less than 20 is denoted as A)

CCCOC[C@H]1C(=O)N[C@@H]([C@@H](C)CC)C(=O)N(C)CC(=O)N(C)[C@H]2C/C=C\CCN(C2=O)[C@@H](Cc2ccc(C(F)(F)F)cc2)C(=O)N(C)CC(=O)N[C@@H](CCc2ccc(C(F)(F)F)c(OC)c2)C(=O)N2C[C@H](OCC)C[C@H]2C(=O)NC2(CCC2)C(=O)N(C)[C@@H](C2CCCC2)C(=O)N(C)[C@H](C(=O)N(C)CCC)CC(=O)N1C [PP2017]
HRAS/KRAS (ratio of KD value for HRAS to KD value for KRAS) ([1]; KD ratio): A (a compound having 10 or more and less than 20 is denoted as A) | NRAS/KRAS (ratio of KD value for NRAS to KD value for KRAS) ([2]; KD ratio): A (a compound having 10 or more and less than 20 is denoted as A)

CCO[C@@H]1C[C@H]2C(=O)NC3(CC(C)(C)C3)C(=O)N(C)[C@@H](C3CCCC3)C(=O)N(C)[C@H](C(=O)N(C)CC)CC(=O)N(C)[C@H]3CCCCCc4ccc(cc4)C[C@@H](C(=O)N(C)CC(=O)N[C@@H](CCc4ccc(C(F)(F)F)c(OC)c4)C(=O)N2C1)N1CC/C=C\C[C@@H](C1=O)N(C)C(=O)CN(C)C(=O)[C@H]([C@@H](C)CC)NC3=O [PP2259]
HRAS/KRAS (ratio of KD value with respect to HRAS to KD value with respect to KRAS) [1]: B (a compound having 3 or more and less than 10 is denoted as B) | NRAS/KRAS (ratio of KD value with respect to NRAS to KD value with respect to KRAS) [2]: A (a compound having 10 or more and less than 20 is denoted as A)

CCCN1C(=O)CN(C)C(=O)[C@@H]2CCN2C(=O)[C@H]([C@@H](C)CC)NC(=O)[C@H](CC(C)C)N(C)C(=O)C[C@@H](C(=O)N2CCOCC2)NC(=O)[C@H](C2CCCC2)N(C)C(=O)C2(CCC2)NC(=O)[C@@H]2CCCN2C(=O)[C@H](CCc2ccc(C(F)(F)F)c(Cl)c2)NC(=O)CN(C)C(=O)[C@@H]1Cc1ccc(C(F)(F)F)cc1 [PP0338] ([NMeL]I[Aze][Sar][NPrPhe(4-CF3)][Sar][hPhe(3-Cl-4-CF3)]P[Ac4c][NMeGly(cPent)]D-Morpholide; lactam N-11)
HRAS/KRAS (ratio of KD for GDP-bound HRAS wild-type to KD for KRAS) ([1]; KD ratio HRAS/KRAS): B (a compound having 3 or more and less than 10 is denoted as B) | NRAS/KRAS (ratio of KD for GDP-bound NRAS wild-type to KD for KRAS) ([2]; KD ratio NRAS/KRAS): B (a compound having 3 or more and less than 10 is denoted as B)

CC[C@H](C)[C@@H]1NC(=O)[C@H](COC)N(C)C(=O)C[C@@H](C(=O)N2CCOCC2)N(C)C(=O)[C@H](C2CCCC2)N(C)C(=O)C2(CCC2)NC(=O)[C@@H]2CC(F)(F)CN2C(=O)[C@H](CCc2cc(F)c(C(F)(F)F)c(F)c2)NC(=O)CN(C)C(=O)[C@H](Cc2ccc(C(F)(F)F)cc2)N2CCCCC[C@@H](C2=O)N(C)C(=O)CNC1=O [PP0861]
HRAS/KRAS (ratio of KD value with respect to HRAS to KD value with respect to KRAS) ([1]; KD ratio): B (a compound having 3 or more and less than 10 is denoted as B) | NRAS/KRAS (ratio of KD value with respect to NRAS to KD value with respect to KRAS) ([2]; KD ratio): B (a compound having 3 or more and less than 10 is denoted as B)

CCC[C@H]1C(=O)N[C@@H]([C@@H](C)CC)C(=O)N(C)CC(=O)N(C)[C@H]2C/C=C\CCN(C2=O)[C@@H](Cc2ccc(C)cc2)C(=O)N(C)CC(=O)N[C@@H](CCc2cc(F)c(C(F)(F)F)c(F)c2)C(=O)N2C[C@H](C)C[C@H]2C(=O)N(C)C2(CCC2)C(=O)N(C)[C@@H](C2CCCC2)C(=O)N(C)[C@H](C(=O)N(C)C)CC(=O)N1C [PP1799]
HRAS/KRAS (ratio of KD value for HRAS to KD value for KRAS) ([1]; KD ratio): B (a compound having 3 or more and less than 10 is denoted as B) | NRAS/KRAS (ratio of KD value for NRAS to KD value for KRAS) ([2]; KD ratio): B (a compound having 3 or more and less than 10 is denoted as B)
